Results: patent publication US8729271B2, “Glycine transporter inhibiting substances” (Taisho Pharmaceutical Co., Ltd, priority 2010, dated 2014)
pIC50: −log10 of the molar value. Where “and” joins values, the source holds several entries; their conditions need not be identical. Identical values can stand only once.

Assays:
[1] = target: T1, human type 1 glycine transporter (GlyT1) (Homo sapiens, UniProt P48067); assay: Glycine uptake inhibition experiment ([3H]glycine uptake in T98G cells); assay type: cell-based; conditions: T98G glioma cells; [3H]glycine 250 nM; 10-min pretreatment; 15 min at room temperature; read-out: glycine uptake inhibiting activity (IC50)
T1 construct: Used in the experiment were T98G cells (glioma cells) developing a human type 1 glycine transporter of (GlyT1); endogenous in cells; host or cells: T98G human glioma cells
T1 sequence (P48067 1-706): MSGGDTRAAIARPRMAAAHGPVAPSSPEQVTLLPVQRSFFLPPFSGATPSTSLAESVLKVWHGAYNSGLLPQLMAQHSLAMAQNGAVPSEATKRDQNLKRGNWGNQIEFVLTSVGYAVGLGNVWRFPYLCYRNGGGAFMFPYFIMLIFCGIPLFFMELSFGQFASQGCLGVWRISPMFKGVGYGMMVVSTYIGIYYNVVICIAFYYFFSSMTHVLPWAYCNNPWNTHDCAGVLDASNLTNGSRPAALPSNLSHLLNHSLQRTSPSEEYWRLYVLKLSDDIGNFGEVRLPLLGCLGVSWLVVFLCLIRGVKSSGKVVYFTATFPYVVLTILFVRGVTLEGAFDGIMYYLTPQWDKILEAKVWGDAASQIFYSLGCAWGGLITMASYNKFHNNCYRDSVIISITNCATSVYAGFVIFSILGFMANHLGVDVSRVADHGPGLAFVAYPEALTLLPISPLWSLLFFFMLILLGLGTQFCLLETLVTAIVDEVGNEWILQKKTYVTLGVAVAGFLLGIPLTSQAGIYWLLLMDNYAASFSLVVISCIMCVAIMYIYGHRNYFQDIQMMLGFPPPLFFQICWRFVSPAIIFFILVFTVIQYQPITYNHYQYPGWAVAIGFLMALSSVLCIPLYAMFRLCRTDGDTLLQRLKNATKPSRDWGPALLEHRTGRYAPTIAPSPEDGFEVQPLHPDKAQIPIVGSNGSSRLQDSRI
Method: A glycine uptake inhibition experiment was conducted in accordance with the method described in Neuron, 8, 927-935, 1992. Used in the experiment were T98G cells (glioma cells) developing a human type 1 glycine transporter of (GlyT1). The T98G cells were seeded in a 96-well plate at a density of 2.0×10^4 cells per well and cultured overnight in a CO2 incubator. The test substance was first dissolved in a 100% DMSO solution and then dissolved in a 10 mM HEPES buffer solution (pH 7.4) supplemented with 150 mM sodium chloride, 1 mM calcium chloride, 5 mM potassium chloride, 1 mM magnesium chloride, 10 mM glucose, and 0.2% bovine serum albumin. After removing the cell culture medium, the test substance was subjected to a 10-min pretreatment. Thereafter, the test substance and [^3H] glycine (final concentration: 250 nM) were added to the cells and reaction was performed at room temperature for 15 minutes. After the end of the reaction, the extracellular fluid was aspirated with a manifold to remove the excess marker glycine present outside of the cells; thereafter, the cells were lysed with an aqueous solution of 0.5 M sodium hydroxide. The glycine content in the cells was determined by measuring the radioactivity in the cell lysate with a liquid scintillation counter. With the amount of glycine uptake in the presence of 10 μM ALX5407 being referred to as the nonspecific uptake, the amount of specific uptake was calculated by subtracting the amount of nonspecific uptake from the total amount of uptake in the absence of 10 μM ALX5407. In addition, glycine uptake inhibiting activity (IC50) was calculated from an inhibition curve for the concentration of the test substance ranging from 10^−9 to 10^−5 M.
It should be noted that ALX5407 is a HCl salt of N-[(3R)-3-([1,1′-biphenyl]-4-yloxy)-3-(4-fluorophenyl)propyl]-N-methylglycine.
Incidentally, Compound 56 which is recited as 2HCl salt in the above Table 1-6 was subjected to measurement as its free form in the Glycine Uptake Inhibition Experiment.

[2] = target: T2, P-glycoprotein (P-gp), Human MDR1 (Homo sapiens, UniProt P08183); assay: Test for recognizability of P-gp substrate (LLC-GAS-COL 300 cells, Transwell); assay type: in vitro ADME; conditions: 10 μM; LLC-GAS-COL 300 cells (Human MDR1 in LLC-PK1); criteria of Nature Reviews Drug Discovery (2010) 9, 215-236
T2 construct: expressed in transfected cells; host or cells: LLC-GAS-COL 300 cells (derived from pig kidney LLC-PK1)
T2 sequence (P08183 whole entry): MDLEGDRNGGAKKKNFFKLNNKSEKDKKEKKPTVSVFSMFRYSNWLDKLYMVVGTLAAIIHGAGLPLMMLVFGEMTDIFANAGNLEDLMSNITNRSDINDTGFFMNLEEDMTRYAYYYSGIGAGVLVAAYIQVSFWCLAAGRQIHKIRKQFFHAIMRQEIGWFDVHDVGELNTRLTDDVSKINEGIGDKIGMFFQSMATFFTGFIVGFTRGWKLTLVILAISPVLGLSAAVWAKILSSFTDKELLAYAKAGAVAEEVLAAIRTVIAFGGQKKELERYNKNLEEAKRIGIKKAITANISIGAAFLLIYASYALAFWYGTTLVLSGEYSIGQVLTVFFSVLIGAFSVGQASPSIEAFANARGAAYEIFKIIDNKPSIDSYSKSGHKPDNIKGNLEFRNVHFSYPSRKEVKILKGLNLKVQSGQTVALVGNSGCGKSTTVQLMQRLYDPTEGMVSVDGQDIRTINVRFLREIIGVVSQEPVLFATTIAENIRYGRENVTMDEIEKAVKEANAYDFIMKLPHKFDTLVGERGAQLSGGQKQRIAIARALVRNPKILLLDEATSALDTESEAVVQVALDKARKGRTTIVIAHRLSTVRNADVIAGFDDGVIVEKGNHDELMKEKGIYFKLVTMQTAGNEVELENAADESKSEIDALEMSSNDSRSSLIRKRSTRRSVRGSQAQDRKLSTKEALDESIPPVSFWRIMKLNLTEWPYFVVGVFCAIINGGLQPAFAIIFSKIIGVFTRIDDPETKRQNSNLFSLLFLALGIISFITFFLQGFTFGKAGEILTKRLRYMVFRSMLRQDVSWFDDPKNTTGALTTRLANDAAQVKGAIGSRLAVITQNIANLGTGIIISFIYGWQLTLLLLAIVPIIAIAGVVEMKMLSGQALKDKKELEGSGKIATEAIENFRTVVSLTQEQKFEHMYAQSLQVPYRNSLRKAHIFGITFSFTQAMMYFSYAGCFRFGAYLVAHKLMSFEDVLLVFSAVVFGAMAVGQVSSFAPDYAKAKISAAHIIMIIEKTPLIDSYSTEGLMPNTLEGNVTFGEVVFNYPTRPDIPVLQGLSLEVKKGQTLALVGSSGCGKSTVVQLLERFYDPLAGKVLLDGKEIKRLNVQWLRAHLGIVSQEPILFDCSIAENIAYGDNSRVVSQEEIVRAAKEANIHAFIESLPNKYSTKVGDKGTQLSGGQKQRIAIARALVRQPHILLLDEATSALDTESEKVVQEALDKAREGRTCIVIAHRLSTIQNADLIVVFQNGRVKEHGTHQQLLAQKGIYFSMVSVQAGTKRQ
Text: In order that drugs acting on the central nervous system will develop their efficacy, their passage from the blood to the brain is generally important. While various efflux transporters are present at the blood-brain barrier to control this passage of drugs, P-glylcoprotein (P-gp) is a typical example and inhibits the passage to the brain of any drugs that serve as the substrate for P-gp. Therefore, in the development of pharmaceuticals, nonrecognizability of a candidate drug as the substrate for P-gp is the key to its passage to the brain.
A test for recognizability of P-gp substrate was performed in accordance with a modified version of the methods described in J Pharmacol. Exp. Ther. (1992) Vol. 263, No. 2, 840-845 and J Biol. Chem. (1992) Vol. 267, No. 34, 24248-24252. To be more specific, LLC-GAS-COL 300 cells (Human MDR1 expressing system derived from pig kidney derived, cultured renal epithelial cell line LLC-PK1) were cultured for 4 days on a Transwell and replaced by a Hank's balanced salt solution (HBSS) in each well just before the test. A solution of an assay compound (a DMSO solution of the compound as diluted with HBSS and adjusted to a final concentration of 10 μM) was added to the donor side of the LLC-GAS-COL 300 cells and a prescribed amount of HBSS was collected from the acceptor side at given time intervals and the concentration of the assay compound in the collected sample was measured by LC-MS/MS.
From the cumulative amount of the compound's permeation into the acceptor, the membrane permeability coefficient (×10^−6 cm/sec) was calculated for each of apical→basal mode and basal→apical mode and the recognizability of P-gp substrate was assessed in terms of the ratio between the two modes (efflux ratio).

pIC50 [1]	Structure (SMILES)	recognizability as P-gp substrate (from efflux ratio basal→apical / apical→basal) [2]
≤ 6.00 and 5.85	CCCN(Cc1cc(-c2ccccc2)ccn1)C(=O)c1cn(C)cn1 [Compound 5]	–
7.74	CC(C)N(Cc1ccc(F)c(-c2ccccn2)c1)C(=O)c1cn(C)cn1 [Compound 14]	not recognizable as the substrate for P-gp
≤ 6.00	CC(C)N(Cc1ccc(F)c(-c2cccc3ncccc23)c1)C(=O)c1cn(C)cn1 [Compound 24]	–
≤ 6.00	Cc1n[nH]c(C)c1-c1cc(CN(C(=O)c2cn(C)cn2)C(C)C)ccc1F [Compound 25]	–
≤ 6.00	CC(C)N(Cc1ccc(F)c(-c2ncc[nH]2)c1)C(=O)c1cn(C)cn1 [Compound 29]	–
8.14	CC(C)N(Cc1ccnc(-c2ccc(OC(F)(F)F)cc2)c1)C(=O)c1cn(C)cn1 [Compound 30]	not recognizable as the substrate for P-gp
≤ 6.00	CC(C)N(Cc1ccnc(-c2ccc(F)cc2)c1)C(=O)c1c[nH]cn1 [Compound 42]	–
≤ 6.00	Cn1cnc(C(=O)N(CCC(F)(F)F)Cc2ccnc(-c3ccc(F)cc3)c2)c1 [Compound 52]	–
≤ 6.00	Cc1cccc(C)c1-c1cc(CN(C(=O)c2cn(C)cn2)C(C)C)ccn1 [Compound 63]	–
7.82	CC(C)N(Cc1ccc(F)c(-n2ccnc2)c1)C(=O)c1cn(C)cn1 [Compound 74]	–
8.46	Cn1cnc(C(=O)N(Cc2ccnc(-c3ccc(OC(F)(F)F)cc3)c2)C2CCC2)c1 [Compound 107]	–
≤ 6.00	CC(C)N(Cc1ccnc(-c2ccccc2OC(F)(F)F)c1)C(=O)c1cn(C)cn1 [Compound 111]	–
8.10	Cn1cnc(C(=O)N(Cc2ccc(F)c(-c3ccc(F)nc3)c2)C2CCC2)c1 [Compound 120]	–
6.80	Cc1cnn(-c2cc(CN(C(=O)c3cn(C)cn3)C(C)C)ccc2F)c1 [Compound 121]	–
≤ 6.00	Cc1cn(-c2cc(CN(C(=O)c3cn(C)cn3)C(C)C)ccc2F)c(C)n1 [Compound 132]	–
≤ 6.00	CC(C)N(Cc1ccnc(-c2cc(F)ccc2C(F)(F)F)c1)C(=O)c1cn(C)cn1 [Compound 137]	–
≤ 6.00	CC(C)N(Cc1noc(-c2ccc(Cl)cc2)n1)C(=O)c1cn(C)cn1 [Compound 138]	–
≤ 6.00	CC(C)N(Cc1ccc(F)c(-c2ccc(F)nc2)c1)C(=O)c1c[nH]cn1 [Compound 141]	–
7.19	Cc1cn(-c2cc(CN(C(=O)c3cn(C)cn3)C(C)C)ccc2F)cn1 [Compound 143]	–
≤ 6.00	CC(C)N(Cc1ccnc(-c2ccc(OC(F)(F)F)cc2)c1)C(=O)c1c[nH]cn1 [Compound 146]	–
7.52	CC(c1ccnc(-c2ccc(F)cc2)c1)N(C(=O)c1cn(C)cn1)C1CCC1 (stereo not drawn) [Compound 153]	–
7.80	Cn1cnc(C(=O)N(Cc2ccnc(-c3cc(F)c(F)cc3F)c2)C2CCC2)c1 [Compound 191]	–
8.43	Cn1cnc(C(=O)N(Cc2ccnc(-c3ccc(F)c(OC(F)F)c3)c2)C2CCC2)c1 [Compound 213]	–

Second part, the compound before the results:

Structure (SMILES)	pIC50 [1]	recognizability as P-gp substrate (from efflux ratio basal→apical / apical→basal) [2]
CC(C)N(Cc1ccc(F)c(-c2ccc(F)nc2)c1)C(=O)c1cn(C)cn1 [Compound 9]	–	not recognizable as the substrate for P-gp
CC(C)N(Cc1ccc(F)c(-c2cncc(F)c2)c1)C(=O)c1cn(C)cn1 [Compound 15]	–	not recognizable as the substrate for P-gp
CC(C)N(Cc1ccnc(-c2ccc(F)cc2)c1)C(=O)c1cn(C)cn1 [Compound 31]	–	not recognizable as the substrate for P-gp
CC(C)N(Cc1ccnc(-c2ccccc2)c1)C(=O)c1cn(C)cn1 [Compound 36]	–	not recognizable as the substrate for P-gp
CC(C)CN(Cc1ccnc(-c2ccc(F)cc2)c1)C(=O)c1cn(C)cn1 [Compound 54]	–	not recognizable as the substrate for P-gp
CCn1cnc(C(=O)N(Cc2ccnc(-c3ccc(F)cc3)c2)C(C)C)c1 [Compound 56]	–	not recognizable as the substrate for P-gp
CC(C)N(Cc1ccnc(-c2cc(F)cc(F)c2)c1)C(=O)c1cn(C)cn1 [Compound 62]	–	not recognizable as the substrate for P-gp
CC(C)N(Cc1ccnc(-c2ccc(Cl)cc2)c1)C(=O)c1cn(C)cn1 [Compound 69]	–	not recognizable as the substrate for P-gp
CC(C)N(Cc1ccc(F)c(-n2cccn2)c1)C(=O)c1cn(C)cn1 [Compound 73]	–	not recognizable as the substrate for P-gp
CC(C)N(Cc1ccnc(-c2ccc(OC(F)F)cc2)c1)C(=O)c1cn(C)cn1 [Compound 124]	–	not recognizable as the substrate for P-gp
Cn1cnc(C(=O)N(Cc2csc(-c3ccc(OC(F)(F)F)cc3)n2)C2CCC2)c1 [Compound 155]	8.24	–
CN(C)c1ccc(-c2cc(CN(C(=O)c3cn(C)cn3)C3CCC3)ccc2F)cn1 [Compound 158]	–	not recognizable as the substrate for P-gp
Cn1cnc(C(=O)N(Cc2nc(-c3ccc(OC(F)(F)F)cc3)no2)C2CCC2)c1 [Compound 160]	6.48	–
Cn1cnc(C(=O)N(Cc2ccc(F)c(-c3ccc(N4CCCC4)nc3)c2)C2CCC2)c1 [Compound 161]	7.92	–
Cn1cnc(C(=O)N(Cc2ccc(F)c(-c3cccnc3C(F)(F)F)c2)C2CCOCC2)c1 [Compound 168]	≤ 6.00	–
COCCN(Cc1ccnc(-c2cccc(OC(F)(F)F)c2)c1)C(=O)c1cn(C)cn1 [Compound 198]	–	not recognizable as the substrate for P-gp
Cn1cnc(C(=O)N(Cc2ccc(F)c(-c3cc(C(F)(F)F)ncn3)c2)C2CCC2)c1 [Compound 208]	7.85	–
